{
  "source": "patent US12534501B2",
  "about": "“Targeting deregulated Wnt signaling in cancer using stabilized alpha-helices of BCL-9” (Dana-Farber Cancer Institute, Inc., priority 2011, dated 2026)",
  "key": {"[1]": {"test_system": "NFκB luciferase reporter in Colo320 cells", "assay": "NFκB reporter gene transcriptional assay", "assay_type": "cell-based", "conditions": "selectivity control", "description": "Luciferase activity was measured using the Dual Luciferase Reporter Assay System (Promega) as previously described (Sukhdeo, K. et al. Proc Natl Acad Sci USA 104, 7516-21 (2007)). To measure Wnt or NFκB reporter activity, Colo320 cells were transfected with TOP-FLASH, FOP-FLASH plasmid (Millipore Corporation) or NFκB luciferase reporter (Stratagene), along with an internal Renilla control plasmid (hRL-null). Transfection was accomplished using FuGENE (Roche) according to the manufacturer's protocol. The results were normalized to control Renilla activity. The reported data represent the average of three independent transfection experiments performed in triplicate. See results in FIG. 9, FIG. 10."}, "[2]": {"test_system": "Wnt target genes in Colo320 cells", "assay": "qPCR of Wnt/β-catenin target genes", "assay_type": "cell-based", "description": "RNA was extracted with TRIzol Reagent (Invitrogen) according to the manufacturer's protocol. Total RNA (2 μg) was reverse transcribed (SuperScript VILO cDNA synthesis kit, Invitrogen) and qPCR was performed using an Applied Biosynthesis 7500 Real-time PCR system. Analysis of target genes was conducted in quadruplicate using POWER SYBR Green Master Mix (Applied Biosystems) with previously described primer sets. Transcripts levels were normalized to β-actin expression. These experiments were repeated three times. See results in FIG. 2B, FIG. 2C.\nTo measure the effects of vehicle, SAH-BCL9B, and SAH-BCL9MUT on the expression of Wnt/β-catenin target genes, including VEGF, in Colo320 (FIG. 18) and MM1S (FIG. 19) cell lines, quantitative PCR (qRT-PCR) analysis was performed. RNA was extracted with TRIzol Reagent (Invitrogen) according to the manufacturer's protocol. Total RNA (2 μg) was reverse transcribed (SuperScript VILO cDNA synthesis kit, Invitrogen) and qPCR was performed using an Applied Biosynthesis 7500 Real-time PCR system. PCR primers were designed as below: […]\nAnalysis of target genes was conducted in quadruplicate using POWER SYBR Green Master Mix (Applied Biosystems) as previously described (M. Mani et al., Cancer Res 69, 7577 (2009)). Transcripts levels were normalized to β-actin expression. These experiments were repeated three times."}, "Colo320 cells [3]": {"test_system": "Colo320 cells", "assay": "Cell proliferation, [3H]thymidine uptake", "assay_type": "cell-based", "conditions": "5 μM, 24 h", "description": "(§1) Cell proliferation assays were performed as described (Sukhdeo, K. et al. Proc Natl Acad Sci USA 104, 7516-21 (2007)). Cell viability was measured using the CellTiter-Glo assay (Promega) according to the manufacturer's instructions. Apoptosis was evaluated by activated caspase-3 and PARP western blotting. See results in FIG. 3A-FIG. 3F, FIG. 13, and FIG. 20."}, "MM1S cells [4]": {"test_system": "MM1S cells", "assay": "Cell proliferation, [3H]thymidine uptake", "assay_type": "cell-based", "conditions": "5 μM", "description": "as §1"}, "Colo320 cells [5]": {"test_system": "Colo320 cells", "assay": "Cell viability, CellTiter-Glo", "assay_type": "cell-based", "conditions": "72 h, 5 μM", "description": "as §1"}, "MM1S cells [6]": {"test_system": "MM1S cells", "assay": "Cell viability, CellTiter-Glo", "assay_type": "cell-based", "conditions": "72 h, 5 μM", "description": "as §1"}, "HUVEC": {"test_system": "HUVEC", "assay": "In vitro angiogenesis assay (capillary tube formation)", "assay_type": "cell-based, human", "conditions": "HUVEC with supernatants of Colo320 or MM1S cells treated at 5 μM for 24 h; read at 5 h", "description": "Angiogenesis was evaluated as previously described (Mani, M. et al. Cancer Res 69, 7577-86 (2009)) using an in vitro angiogenesis assay kit (Millipore). For capillary tube formation analysis, HUVEC were cultured on polymerized matrix gel and exposed to supernatant media collected from Colo320 or MM1S cells treated with vehicle (0.5% DMSO), SAH-BCL9B peptides (5 μM) for 24 h. The number of capillary tubes formed after 5 h treatment at 37° C. was determined by counting 5 randomly selected fields at 40× magnification, according to manufacture's instructions. HUVEC cultured in VEGF media and VEGF-free media were used as positive and negative controls, respectively. Cellular invasion assays were performed using Matrigel Boyden chambers (BD Biosciences) as described (Mani, M. et al. Cancer Res 69, 7577-86 (2009)). The reported data represent the average of three independent experiments performed in triplicate. See results in FIG. 3H-FIG. 3I."}, "[7]": {"test_system": "GFP-positive Colo320 cells in NOD/SCID mice", "assay": "Colo320 intraperitoneal xenograft model", "assay_type": "in vivo", "description": "To explore the therapeutic potential of targeting the BCL9/β-catenin interaction, the capacity of SAH-BCL9B to suppress tumor growth was examined in vivo. GFP-expressing Colo320 cells (1×10^6) were injected into the peritoneum of sublethally irradiated NOD/SCID mice. Two days after cellular injection, mouse cohorts (n=6) were treated with vehicle (2.5% DMSO in D5W), SAH-BCL9B, or SAH-BCL9B(R359E) peptides (20 mg/kg) for a total of 6 doses administered intraperitoneally every other day. On day 40 of the experiment, mice were sacrificed and evaluated for tumor burden and metastasis by whole body imaging and histologic examination of harvested GFP-positive tissues. […] Importantly, no histologic changes in normal murine tissues were observed across the treatment groups upon necropsy.\nGFP-positive Colo320 cells were generated as previously reported (Mani, M. et al. Cancer Res 69, 7577-86 (2009)). Cells were pelleted, resuspended in sterile 1x PBS and injected intraperitoneally (1×10^6 cells/mouse) into 5-week-old sublethally irradiated NOD.CB17-PrkdcSCID/J mice (Jackson Laboratory) (n=6 per cohort). Two days after cellular inoculation, mice were treated by intraperitoneal injection with vehicle (2.5% DMSO in D5W) or SAH-BCL9 peptides (20 mg/kg) on alternate days for a total of 6 doses. Forty days after tumor cell injection, the mice were euthanized and GFP-positive tumor visualized using an ImageQuant LAS-4000 (GE Healthcare). Complete necropsies were performed for each experimental animal and livers were sectioned in their entirety at 5 mm intervals for quantitation of tumor metastases. Tissues were subjected to H&E staining and immunohistochemical analysis using anti-CD34 and anti-CD44 antibodies."}, "Colo320 cells [8]": {"test_system": "Colo320 cells", "assay": "Combination with 5-fluorouracil, 3H-thymidine incorporation", "assay_type": "cell-based", "conditions": "Colo320, increasing concentrations of 5-FU", "description": "To test whether the anti-proliferative effect of SAH-BCL9B could synergize with other agents commonly used to treat MM or CRC, combination treatment studies were conducted. Indeed, the cytotoxic effects of 5-fluorouracil on CRC cells and of doxorubicin on MM cells were enhanced by SAH-BCL9B, but not by vehicle or the mutant peptide. See results in FIG. 21."}, "[9]": {"conditions": "20 mg/kg i.p. every other day, 6 doses, day 40"}},
  "note": "Numbered stars: 1 amine (or outer) side, 2 acyl side, 3 side chain; on linkers, the order of the positions; unused ones are H or OH. Bridge positions count the residues as written; N and C are the ends. Square brackets hold non-standard residues; d marks the D form. Peptide text beside a SMILES is read from it. ξ: configuration not given here. ξαMeNle(6-ylidene) = CC(CCCC=[*:3])(N[*:1])C(=O)[*:2]; Nle = CCCC[C@H](N)C(=O)O",
  "data": [
    {"molecule": "CCCC[C@H](NC(=O)[C@H](CCCNC(=N)N)NC(=O)[C@H](CCC(N)=O)NC(=O)[C@@H](NC(=O)C1(C)CCCC=CCCCC(C)(NC(=O)[C@H](CC(C)C)NC(=O)[C@H](CO)NC(=O)[C@H](CCCNC(=N)N)NC(=O)[C@H](CCC(=O)O)NC(=O)[C@H](CCCNC(=N)N)NC(=O)[C@H](Cc2c[nH]cn2)NC(=O)[C@H](CCC(=O)O)NC(=O)[C@H](CC(C)C)NC(=O)[C@H](CCC(N)=O)NC(=O)[C@H](CCC(=O)O)NC(=O)[C@H](CCC(N)=O)NC(=O)[C@H](CO)NC(=O)[C@H](CC(C)C)NC(C)=O)C(=O)N[C@@H]([C@@H](C)O)C(=O)N[C@@H](CC(C)C)C(=O)N[C@@H](CCCNC(=N)N)C(=O)N1)[C@@H](C)CC)C(=O)N[C@@H](CC(C)C)C(=O)N[C@@H](Cc1ccccc1)C(N)=O", "note": "(stereo partly shown) [SAH-BCL9B] (Ac-LSQEQLEHRERSL[ξαMeNle(6-ylidene)]TLR[ξαMeNle(6-ylidene)]IQR[Nle]LF-NH2; staple 14-18)", "values": [
      {"measurement": "effect on NFκB reporter activity", "setting": "[1]", "value": "no effect"},
      {"measurement": "mRNA levels of VEGF, c-Myc, and Axin2", "setting": "[2]; qPCR", "value": "significantly reduced"},
      {"measurement": "Actin expression (non-Wnt pathway target gene)", "setting": "[2]; qRT-PCR, Colo320", "value": "no change"},
      {"measurement": "mRNA levels of VEGF, c-MYC, LGR5, LEF1, and AXIN2", "setting": "[2]; qRT-PCR, Colo320 (FIG. 18A), normalized to β-actin", "value": "dose-responsively reduced"},
      {"measurement": "proliferation", "setting": "Colo320 cells [3]", "value": "reduced the proliferation"},
      {"measurement": "proliferation", "setting": "MM1S cells [4]", "value": "reduced the proliferation"},
      {"measurement": "viability", "setting": "Colo320 cells [5]", "value": "no effect"},
      {"measurement": "viability", "setting": "MM1S cells [6]", "value": "no effect"},
      {"measurement": "capillary tube formation", "setting": "HUVEC", "value": "reduced capillary tube formation"},
      {"measurement": "metastatic tumor nodules in the liver", "setting": "[7]; [9]", "value": "overall reduction of metastatic tumor nodules"},
      {"measurement": "tumor burden (overall tissue fluorescence, whole body imaging)", "setting": "[7]; [9]", "value": "markedly reduced"},
      {"measurement": "capillary CD34 immunoreactivity", "setting": "[7]; 20 mg/kg i.p., 6 doses", "value": "less intense capillary CD34 immunoreactivity"},
      {"measurement": "number of intratumoral blood vessels", "setting": "[7]; 20 mg/kg i.p., 6 doses", "value": "reduction in the number of intratumoral blood vessels"},
      {"measurement": "tumor cell CD44 immunoreactivity", "setting": "[7]; 20 mg/kg i.p., 6 doses", "value": "decreased tumor cell CD44 immunoreactivity"},
      {"measurement": "TUNEL positivity in colonic tumor tissue", "setting": "[7]; NOD/SCID mice bearing intraperitoneal Colo320 cells", "value": "notably increased TUNEL positivity"},
      {"measurement": "enhancement of anti-tumor activity of 5-fluorouracil", "setting": "Colo320 cells [8]", "value": "significantly enhanced the anti-tumor activity"}
    ]}
  ]
}
